Consider one molecule from patent US12268782B2, “Preparation method of fatty acid liposome for VC encapsulation” (Jiangnan University, priority 2020, dated 2025).

The series can be described thus: Degradation of VC in deionized water over time at different temperatures (FIG. 1). The format is physicochemical. From the text:
Vitamin C (VC), also known as L-ascorbic acid, is a main component of common food additives and cosmetics, and can serve as a vitamin supplement and an antioxidant in cosmetics. However, VC is very unstable in neutral or alkaline aqueous solutions.

As to `O=C1O[C@H]([C@@H](O)CO)C(O)=C1O` [VC, L-ascorbic acid], the “degradation rate of VC” value (deionized water, 6 h, temperature higher than 50° C.) came out at 80%. In addition, for the setting “initial concentration 0.27 mg/mL in deionized water, 25° C., after 12 h”, the “VC degrades (degradation)” value is 29%.
